The target in this experiment is T1, RPS6KA5 (MSK1) (Homo sapiens, UniProt O75582).
T1 construct: purchased Thermo Fisher Scientific (Life Technologies) SelectScreen
The experiment in a line: SelectScreen Z'LYTE. The class given is biochemical. Put shortly: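 Percent values come from Thermo SelectScreen profiling of NU5455, combining activity and binding assays. CSF1R was run in Z'LYTE format at Km app ATP, and CAMK1 in Adapta format with ATP listed at 10.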

The results in this text go back to PMC6934184, “Selective DNA-PKcs inhibition extends the therapeutic index of localized radiotherapy and chemotherapy” (The Journal of Clinical Investigation, 2019).

T1 sequence (O75582 whole entry): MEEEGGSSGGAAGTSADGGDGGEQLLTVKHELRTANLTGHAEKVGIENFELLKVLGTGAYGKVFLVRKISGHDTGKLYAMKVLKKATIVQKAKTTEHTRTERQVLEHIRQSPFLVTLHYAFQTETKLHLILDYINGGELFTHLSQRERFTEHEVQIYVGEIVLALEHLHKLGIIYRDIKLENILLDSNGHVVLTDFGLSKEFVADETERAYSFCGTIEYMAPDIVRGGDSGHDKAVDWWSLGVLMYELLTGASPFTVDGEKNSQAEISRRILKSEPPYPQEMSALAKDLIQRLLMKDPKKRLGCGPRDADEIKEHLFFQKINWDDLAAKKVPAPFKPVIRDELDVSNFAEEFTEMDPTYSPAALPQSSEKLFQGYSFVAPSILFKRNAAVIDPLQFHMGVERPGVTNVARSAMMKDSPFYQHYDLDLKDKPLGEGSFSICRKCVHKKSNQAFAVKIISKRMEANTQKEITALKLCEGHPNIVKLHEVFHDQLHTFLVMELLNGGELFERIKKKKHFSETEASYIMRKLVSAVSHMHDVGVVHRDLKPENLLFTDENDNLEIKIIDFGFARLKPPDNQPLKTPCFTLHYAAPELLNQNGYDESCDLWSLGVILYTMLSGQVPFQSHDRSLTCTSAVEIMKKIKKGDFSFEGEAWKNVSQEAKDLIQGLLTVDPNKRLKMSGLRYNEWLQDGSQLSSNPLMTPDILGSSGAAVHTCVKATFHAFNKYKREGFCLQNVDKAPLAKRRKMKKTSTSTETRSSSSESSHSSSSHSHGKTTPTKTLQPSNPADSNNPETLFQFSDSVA

`CN(C(=O)CN1CCOCC1)c1ccc2sc3c(-c4cccc5c(=O)cc(N6CC7CCC(C6)O7)oc45)cccc3c2c1` [NU5455]: 1 µM produced 7.4% inhibition.
